“Also recorded” adds a separate entry of the source. Where two headings read alike, the source gives them in different places.
Experiments:
rats following MCAO [1] = test: Brain infarction quantification (Nissl thionin) after MCAO; assay type: in vivo, rat; conditions: s.c. daily for 3 days from 24 h post-MCAO (NAGH 0.86, NAD 2.8, Bromo-DTG 8.2, Chloro-DTG 8.5 mg/kg/day); 30 days post MCAO
Method: All animal procedures were performed according to the University of South Florida guidelines for the care and use of animals and protocols were reviewed and approved by the Institutional Animal Care and Use Committee and adhered to the NIH guidelines for the care and use of animals. Adult male Sprague Dawley rats (Harlan) weighing about 250-300 g at the time of surgery were used for the study. All animals were housed two per cage in a temperature controlled room, under a 12 hour light-dark cycle, and given access to water and food ad libitum. Animals were monitored daily for wellness and biweekly for weight loss. For the NAGH studies, a total of 84 animals were randomly assigned to 2 groups: MCAO only (n=42) and rat treated with NAGH (n=42) beginning 24 hour after MCAO.
(§1) MCAO surgeries were performed as described elsewhere (Vendrame M, Cassady C J, Newcomb J, Butler T, Pennypacker K R, Zigova T, et al. Stroke. 2004; 35:2390-2395). Briefly, rats were anesthetized with isoflurane, and the right common carotid and external carotid arteries were exposed using blunt dissection techniques. The vagus nerve was separated from common carotid artery and the external carotid artery was ligated proximally, and transected near the bifurcation. An embolus 40 mm in length (4.0 siliconized monofilament) was inserted into the external carotid artery and fed distally into the origin of the middle cerebral artery (˜25 mm from insertion) through the internal carotid artery. Blood samples were taken and analyzed using an i-STAT handheld analyzer for hemoglobin, hematocrit, ionized calcium, glucose, sodium, potassium, pH, pCO2, HCO3, TCO2, base excess, pO2, and O2. Cerebral blood flow was recorded using a Laser Doppler Monitor (Moor Instruments) to verify occlusion. Afterwards, the embolus was ligated permanently into the vessel and the neck incision was closed. Animals were treated with Ketoprofen IM (10 mg/kg) for three days post-surgery.
(§2) For the NAGH studies, vehicle or NAGH were prepared fresh each day. Daily subcutaneous injections (s.c) were administered beginning about 24 hours after MCAO and continued daily to about 72 hours post-surgery (FIG. 1). Animals received a total of 3 injections. A total of 84 animals were randomly assigned into 2 groups: Rats treated with vehicle (40% DMSO in sterile saline, n=42), or rats treated with 0.86 mg/kg NAGH (n=42).
For the studies with other compounds based on the structure of DTG, twenty-four hours after MCAO, the rats began a sigma agonist treatment regimen. Vehicle or drug was prepared fresh each day. […]
Infarct size was determined by Nissl thionin staining. […]

microglial cells [2] = conditions: 24 hours after in vitro ischemia; cited from earlier work
microglial cells [3] = test: Inhibition of microglial migration evoked by ATP; assay type: cell-based
Method: (§3) FIG. 8 is a series of images confirming NAGH acts as a sigma receptor agonist. A) Concentration-response relationship for NAGH (closed circles) and DTG (open circles) inhibition of microglial migration evoked by 100 μM ATP. […] Points represent mean (±SEM) and for all points, n>9. B) Bar graph of the mean (±SEM) number of microglial cells migrating in response to 100 μM ATP when ATP was added alone (DMEM) or in the presence of 100 μM NAGH. Microglia were further exposed to no σ antagonist (Control), or the σ-1 antagonist, BD-1047 (10 μM, BD-1047), or the σ-2 antagonist, rimcazole (10 μM, Rimcazole). Asterisks denote significant difference between DMEM and NAGH within Control, BD-1047 and Rimcazole groups, respectively. Pound symbols indicate significant difference between Control, BD-1047 and Rimcazole within DMEM and NAGH groups, respectively. P<0.05 and n=24 for all groups.
as §3, with “8A illustrates the concentration-response” for “8 is a series of images confirming NAGH acts as a sigma receptor agonist. A) Concentration-response”, “FIG. 8B depicts a bar” for “B) Bar”

[4] = system: permanent middle cerebral artery occlusion (MCAO); conditions: administered beginning 24 hours after permanent MCAO; cited from earlier work
rats following MCAO [5] = test: Spontaneous activity (automated activity monitor) after MCAO; assay type: in vivo, rat; conditions: NAD 2.8 mg/kg s.c. x3; 30 days after MCAO; day and night
Method: as §1, §2
(§4) For NAD testing, a total of 32 animals were randomly assigned into 2 groups: Vehicle (n=16), and rat treated with 2.8 mg/kg NAD (n=16). Vehicle consisted of 40% DMSO in sterile saline.
Spontaneous Activity was measured during both the day (1 hr) and night (12 hrs) using an automated activity monitor (VersaMax, Accuscan Instruments, Inc). Spontaneous Activity was measured prior to stroke to establish the normal baseline for each individual animal as well as 1 month after the MCAO. The animals were placed in a Plexiglas box and allowed to roam freely. There is a three dimensional infrared array in this box and when a beam is broken, activity is recorded. A total of sixteen parameters were measured including: Vertical movement, Horizontal movement, and Stereotypic activity were selected for analysis: Horizontal activity (HA), Total distance travelled (TD), Number of movements (MVN), Movement time (MVT), Vertical activity (VA), Number of vertical movements (VMN), vertical time (VT), Stereotype counts (SC), Number of Stereotypy (SN), Stereotypy time (ST), Clockwise rotation (CR), counterclockwise rotation (CCR), Margin distance (MD), Marginal time (MT), Center distance (CD), and Center time (CT). The data are presented as mean+SEM of percent of baseline behavior.

rats following MCAO [6] = test: Grip strength test after MCAO; assay type: in vivo, rat; conditions: NAD 2.8 mg/kg s.c. x3; 30 days after MCAO; p=0.0007
Method: as §4
Motor deficits were assessed using a grip strength meter (Bioseb, # BIO-GS3). The animals were held so the front left paw could firmly grasp the bar of the strength meter, and then pulled straight backward until its front paw released its grasp. Grip strength was recorded in Newtons (N). This test was repeated 3 times.

rats following MCAO [7] = test: Step test after MCAO; assay type: in vivo, rat; conditions: NAD 2.8 mg/kg s.c. x3; 30 days post-stroke; p<0.05
Method: as §4
(§5) Rats were held tightly with one forelimb placed on a hard flat table top and then pulled for a length of 1 meter in the direction of the placed forelimb at constant velocity. The test was repeated with the opposite forelimb. This was repeated three times for each forelimb and the percent of contralateral forelimb paw was obtained. The bias was standardized as the absolute number of steps with the contralateral paw minus 100.

rats following MCAO [8] = test: Battery of behavioral tests after MCAO (corner, grip, rotorod, step, cylinder); assay type: in vivo, rat; conditions: NAD 2.8 mg/kg s.c. x3; 30 days after MCAO
Method: After surgery, animals were tested was performed once before surgery and 30 days post-surgery for motor coordination and behavior. All behavioral data are reported as mean+sem.
Rotorod test, which measures motor coordination, was conducted using Omni-rotor Rotorod (Omnitech, Inc). Animals were trained on the accelerating rotorod apparatus for 3 consecutive days before times were collected. Animals were placed on the revolving rod and instrument was set to accelerate to a maximum speed of 40 rpm over 180 seconds. Latency to fall (in seconds) was recorded. This test was performed in triplicate once per day for 3 days.
as §5
The animals were placed in a transparent cylinder about 20 cm in diameter and 30 cm in height with an open top. The number times each paw was placed on the sides of the cylinder was counted a5 minute period. The test was videotaped and a mirror was placed behind the cylinder allowing the experimenter to see the placement of paws when the animal was facing away from the camera.
A 30 degree angle was formed using the edges of two plexiglass boards. The animals were placed halfway into the corner facing the corner and the total number of left and right turns was recorded. A total of 10 trials were conducted and videotaped. A non-lesioned animal turned randomly toward the left or right, while a lesioned animal preferentially turned toward the non-impaired (left) side. Results were reported as the percentage of ipsilateral (injury site, right side) versus contralateral turns.
Motor deficits were assessed using a grip strength meter (Bioseb, # BIO-GS3). […] Grip strength was recorded in Newtons (N). […]

stroke = conditions: Ruscher, Shamloo et al. 2011; cited from earlier work
[9] = migration evoked by 100 μM ATP, two-component Langmuir-Hill fit

## Cl.N=C(Nc1ccc(Br)cc1)Nc1ccc(Br)cc1 [Bromo-DTG, N,N′-di-p-Bromophenylguanidine hydrochloride]
Rats following MCAO [1]
  Infarct volume vs vehicle: did not show significant effects over vehicle

## Cl.N=C(Nc1cccc(Cl)c1)Nc1cccc(Cl)c1 [Chloro-DTG, N,N′-di-m-Chlorophenylguanidine hydrochloride]
Rats following MCAO [1]
  Infarct volume vs vehicle: did not show significant effects over vehicle

## Cc1ccccc1NC(=N)Nc1ccccc1C [DTG, 1,3-di-o-tolylguanidine, reference compound]
Microglial cells [2]
  Microglial cell death: significantly reduced microglial cell death
Microglial cells [3]; [9]
  Emax, high affinity component: 0.38
  Emax, low affinity component: 0.62
  Hill coefficient, high affinity component: 0.59
  Hill coefficient, low affinity component: 1.7
Microglial cells [3]; migration evoked by 100 μM ATP, two-component Langmuir-Hill fit, read-out: IC50, high affinity component
  IC50: 0.76 µM
Microglial cells [3]; read-out: IC50, low affinity component
  IC50: 80 µM
[4]
  Infarct size 96 hrs post-MCAO: decreased infarct volume; also recorded: decreased infarct size
  Long-term functional recovery: failed to improve long-term functional recovery

## Cl.N=C(Nc1ccc([N+](=O)[O-])cc1)Nc1ccc([N+](=O)[O-])cc1 [NAD, N,N′-di-p-Nitrophenylguanidine hydrochloride]
Rats following MCAO [5]
  Activity vs MCAO-only animals: less activity than MCAO-only animals
Rats following MCAO [6]
  Average grip strength vs non-treated rats: significantly higher
Rats following MCAO [1]
  Infarct volume vs vehicle: not significant
Rats following MCAO [7]
  Step test, steps with impaired paw compared to unimpaired paw: 100.3 ± 5.6%
Rats following MCAO [8]
  Overall behavioral data vs vehicle, all tests except Grip Strength and Step test: no significant difference

## COc1ccc(CCN2CCN(CCCc3ccccc3)CC2)cc1OC [SA4503]
stroke
  Infarct size: without decreasing infarct size
  Sensorimotor function: improved sensorimotor function
